Laboratory results taken from patent US12564595B2, “Prophylactic and therapeutic pharmaceutical agent for HIV infectious diseases characterized by comprising combination of integrase inhibitor and anti-HIV agent” (Shionogi & Co., Ltd., priority 2019, dated 2026).
Read-outs that look alike come from different tables or passages of the source.

Legend:
[1] = test system: HIV; experiment: microbe, parasite or virus in culture; format: cell-based; conditions: Human immunodeficiency virus 1, MT4, 96 h, read-out: EC50 (50% HIV inhibition concentration), MT-4 cells, HIV, cultured four days, MTT
Method: A serial dilution series of test samples was prepared in 96-well microplates (50 μL/well).
100 μL/well in each case were dispensed onto plates having test samples of 2.5×10^5/mL MT-4 cell suspension, and HIV virus solution was then dispensed thereto in the amount of 50 μL/well. Mixing was performed using a plate mixer and culturing was performed for four days in a CO2 incubator. MTT (3-(4,5-dimethylthiazol-2-yl)-2,5-diphenyltetrazolium bromide) liquid was dispensed into each well in the amount of 30 μL in each case. The reaction was conducted for 1 h in a CO2 incubator. 150 μL of supernatant were removed from each well, taking care not to aspirate any cells. 150 μL of cell solution were added, and thorough mixing was performed with a plate mixer until all the cells had been dissolved. The optical absorbance of the mixed plates was measured at two wavelengths: 560 nm/690 nm, with a microplate reader.

[2] = test system: HIV mutant strain 1 (E138K/G140S/Q148H/N155H); experiment: Test Example 2: resistance evaluation test (HeLa-CD4 reporter), mutant strain 1; format: cell-based; conditions: FC=EC50 of mutant strain/EC50 of wild strain; HeLa-CD4 cells
Method: (§1) A serial dilution series of test samples in 96-well microplates was prepared (50 […]).
(§2) 2.5×10^4/mL of HeLa-CD4 cell suspension was dispensed into each of the microplates containing test sample, in the amount of 100 μL/well, and HIV virus liquid (wild strain and mutant strain) was then dispensed in an amount of 50 μL/well. Mixing was performed using a plate mixer and culturing was performed for three days in a CO2 incubator. After removing the cultured supernatant of each well by suction, 100 μL of the cell solution buffer in the reporter measurement kit was dispensed thereto, and freezing was conducted in a refrigerator (−80° C.). The plates frozen in the refrigerator were defrosted at room temperature, then mixed using a plate mixer and centrifuged for 5 min at 1,200 rpm. The supernatant of each well was divided to 96-well microplates (BLACK) in the amount of 20 μL in each case. The chemiluminescence reagent in the reporter assay kit was dispensed in the amount of 100 μL in each case, and, after reacting for about 1 h at room temperature, the amount of luminescence was measured using a MicroBeta TRILUX.
(§3) The degree of resistance (fold change (FC)) of each mutant strain was also calculated using the following formula. FC=EC50 of mutant strain/EC50 of wild strain (Results)
(§4) The results of the example compounds relating to formula (I) of (A) are shown below. The […] in respect of mutant strain 1 (E138K/G140S/Q148H/N155H) and the FC in respect of mutant strain 2 (E92Q/E138T/G140S/Q148H) are shown in the Table.

[3] = test system: HIV mutant strain 2 (E92Q/E138T/G140S/Q148H); experiment: Test Example 2: resistance evaluation test (HeLa-CD4 reporter), mutant strain 2; format: cell-based; conditions: FC=EC50 of mutant strain/EC50 of wild strain; HeLa-CD4 cells
Method: as §1, §2, §3, §4

[4] = test system: HIV; experiment: Test Example 3: test for confirmation of combined use effect; format: cell-based; parameters: key to D value (dosewise additivity value): <-0.1 synergy, -0.1 to 0.1 additive, >0.1 antagonism
Text: The two compounds in respect of which the effect of combined use was desired to be examined were mixed in various ratios, and the anti-HIV activity (50% HIV inhibiting concentration) for each combination was found by the method of test example 1. […] A brief description of the method of calculating the D value is given below.
The D value that is found by evaluating the anti-HIV activity of respective combinations of M concentrations of compound X1 and N concentrations of compound X2 is calculated by the following mathematical expression 1.
The effect of combined use was evaluated in terms of the D value in accordance with the following criteria • −0.5 to −0.2: strong synergetic effect • −0.2 to −0.1: weak synergetic effect • […]: additive synergetic effect • 0.1 to 0.2: weak antagonism • 0.2 to 0.5: strong antagonism

[5] = Test Example 8: metabolic stability test; format: in vitro ADME, human; conditions: pooled human liver microsomes, 30 min at 37° C., NADPH, compound concentration 0.5 μmol/L
Method: The extent of metabolization of the compound according to the present invention in the liver was evaluated by reacting commercially available pooled human liver microsomes with the compound according to the present invention for a fixed time and calculating the remaining percentage by comparing the reaction sample with an unreacted sample.
The reaction (oxidative reaction) was conducted for 0 min or 30 min at 37° C. in the presence of 1 mmol/L of NADPH, in a 0.2 mL buffer solution containing 0.5 mg of human liver microsome protein/mL (50 mmol/L Tris-HCl pH 7.4, 150 mmol/L potassium chloride, 10 mmol/L magnesium chloride). After the reaction, 50 μL of reaction liquid were added to 100 μL of methanol/acetonitrile=1/1 (v/v) solution, mixed, and centrifuged for 15 minutes at 3000 rpm. The compound according to the present invention in the centrifuged supernatant was quantified using LC/MS/MS or solid phase extraction (SPE)/MS; the residual amount of the compound according to the present invention after the reaction was calculated, taking the amount of the compound at the 0 min reaction point as 100%.

[6] = compounds of formula (I) of (A)
[7] = combination with compound (B) Compound C (CAI)
[8] = combination with compound (B) Darunavin (PI)
[9] = combination with compound (B) Darunavir (PI)
[10] = combination with compound (B) GS-6207 (CAI)
[11] = combination with compound (B) GSK2838232 (maturation inhibitor)
[12] = combination with compound (B) Lilpiperine (polymerase inhibitor)
[13] = combination with compound (B) Ramipzin (3TC) (polymerase inhibitor)
[14] = combination with compound (B) Rilpivirine (polymerase inhibitor)
[15] = combination with compound (B) I′-189 (INLAI)
[16] = combination with compound (B) VM-1500 (polymerase inhibitor)
[17] = compounds of formula (I′) of (B)

In the case of CC(C)N1C(=O)c2c(O)c(=O)c(C(=O)NCc3ccc(F)cc3F)cn2N2CCCC[C@@H]12 [Compound I-004], the EC50 [1, 6] is reported as 2.5 nM.
Compound CC(C)N1C(=O)c2c(O)c(=O)c(C(=O)NCc3c(F)cc(F)cc3F)cn2N2CCOC[C@@H]12 [II-022] has an EC50 [1, 6] of 0.39 nM.
With C[C@H]1C[C@H]2N(C)C(=O)c3c(O)c(=O)c(C(=O)NCc4cccc(Cl)c4F)cn3N2C1 [II-036] the “FC in respect of mutant strain 1 (E138K/G140S/Q148H/N155H)” value (from here on “FC … (E138K/G140S/Q148H/N155H)”) [2] was 15, the “FC in respect of mutant strain 2 (E92Q/E138T/G140S/Q148H)” value (shortened to “FC … (E92Q/E138T/G140S/Q148H)”) [3] was 7.9 and the “D value (dosewise additivity value)” value [4, 7] was 0.032. For the same compound, the “effect of combined use” value [4, 7] was “Additive (−0.1 to −0.1: additive synergetic effect)”, the “D value (dosewise additivity value)” value [4, 8] was −0.115 and the “effect of combined use” value [4, 9] was “Weak synergy (−0.2 to −0.1: weak synergetic effect)”. The “D value (dosewise additivity value)” value [4, 10] was −0.117, the “effect of combined use” value [4, 10] was “Weak synergy (−0.2 to −0.1: weak synergetic effect)” and the “D value (dosewise additivity value)” value [4, 11] was 0.021. For the same compound, the “effect of combined use” value [4, 11] was “Additive (−0.1 to −0.1: additive synergetic effect)”, the “effect of combined use” value [4, 12] was “Additive (−0.1 to −0.1: additive synergetic effect)” and the “D value (dosewise additivity value)” value [4, 13] was −0.184. The “effect of combined use” value [4, 13] was “Weak synergy (−0.2 to −0.1: weak synergetic effect)”, the “D value (dosewise additivity value)” value [4, 14] was −0.044 and the Remaining percentage [5] was 97.4%.
CCN1C(=O)c2c(O)c(=O)c(C(=O)NCc3cccc(C(F)(F)F)c3F)cn2N2CCCC[C@@H]12 [II-074] gave an EC50 [1, 6] of 18 nM.
In the case of CCN1C(=O)c2c(O)c(=O)c(C(=O)NCc3ccc(C#N)cc3)cn2N2CCCC[C@@H]12 [II-090], the EC50 [1, 6] is reported as 18 nM.
With CN1C(=O)c2c(O)c(=O)c(C(=O)NCc3cccc(Cl)c3F)cn2N2CCCC[C@@H]12 [II-092] the “FC … (E138K/G140S/Q148H/N155H)” value [2] was 6.8, the “FC … (E92Q/E138T/G140S/Q148H)” value [3] was 7.7 and the “D value (dosewise additivity value)” value [4, 7] was 0.056. For the same compound, the “effect of combined use” value [4, 7] was “Additive (−0.1 to −0.1: additive synergetic effect)”, the “D value (dosewise additivity value)” value [4, 8] was −0.117 and the “effect of combined use” value [4, 9] was “Weak synergy (−0.2 to −0.1: weak synergetic effect)”. For the same compound, the “D value (dosewise additivity value)” value [4, 10] was −0.093, the “effect of combined use” value [4, 10] was “Additive (−0.1 to −0.1: additive synergetic effect)” and the “D value (dosewise additivity value)” value [4, 11] was 0.000. For the same compound, the “effect of combined use” value [4, 11] was “Additive (−0.1 to −0.1: additive synergetic effect)”, the “effect of combined use” value [4, 12] was “Additive (−0.1 to −0.1: additive synergetic effect)” and the “D value (dosewise additivity value)” value [4, 13] was −0.118. For the same compound, the “effect of combined use” value [4, 13] was “Weak synergy (−0.2 to −0.1: weak synergetic effect)”, the “D value (dosewise additivity value)” value [4, 14] was −0.022 and the Remaining percentage [5] was 101%.
For CCN1C(=O)c2c(O)c(=O)c(C(=O)NCc3c(F)cc(F)cc3F)cn2N2C[C@@H](C)CC[C@@H]12 [II-096], the “FC … (E138K/G140S/Q148H/N155H)” value [2] was 6.4, the “FC … (E92Q/E138T/G140S/Q148H)” value [3] was 8.9 and the “D value (dosewise additivity value)” value [4, 7] was 0.065. The “effect of combined use” value [4, 7] was “Additive (−0.1 to −0.1: additive synergetic effect)”, the “D value (dosewise additivity value)” value [4, 8] was −0.130 and the “effect of combined use” value [4, 9] was “Weak synergy (−0.2 to −0.1: weak synergetic effect)”. The “D value (dosewise additivity value)” value [4, 10] was −0.125, the “effect of combined use” value [4, 10] was “Weak synergy (−0.2 to −0.1: weak synergetic effect)” and the “D value (dosewise additivity value)” value [4, 11] was 0.001. For the same compound, the “effect of combined use” value [4, 11] was “Additive (−0.1 to −0.1: additive synergetic effect)”, the “D value (dosewise additivity value)” value [4, 15] was 0.070 and the “effect of combined use” value [4, 15] was “Additive (−0.1 to −0.1: additive synergetic effect)”. The “effect of combined use” value [4, 12] was “Additive (−0.1 to −0.1: additive synergetic effect)”, the “D value (dosewise additivity value)” value [4, 13] was −0.177 and the “effect of combined use” value [4, 13] was “Weak synergy (−0.2 to −0.1: weak synergetic effect)”. For the same compound, the “D value (dosewise additivity value)” value [4, 14] was −0.035, the “D value (dosewise additivity value)” value [4, 16] was −0.115 and the “effect of combined use” value [4, 16] was “Weak synergy (−0.2 to −0.1: weak synergetic effect)”. For the same compound, the Remaining percentage [5] was 90.7%.
Work on CCN1C(=O)c2c(O)c(=O)c(C(=O)NCc3ccc(F)cc3F)cn2N2[C@@H](C)c3cc(F)ccc3[C@@H]12 [II-140] yielded an EC50 [1, 6] of 0.67 nM.
With Cc1ccc(-c2c([C@H](OC(C)(C)C)C(=O)O)c(C)c3c4c2cc(C)n4CCN3C)cc1 [I′-001] the EC50 [1, 17] was 0.69 nM.
Compound Cc1ccc(-c2c([C@H](OC(C)(C)C)C(=O)O)c(C)c3c4c2cc(C)n4CCN3CCN(C)C)cc1 [I′-027] has an EC50 [1, 17] of 9.9 nM.
